Assay results published in PMC8398878, “Synthesis, Physicochemical Characterization, In Vitro 2D/3D Human Cell Culture, and In Vitro Aerosol Dispersion Performance of Advanced Spray Dried and Co-Spray Dried Angiotensin (1—7) Peptide and PNA5 with Trehalose as Microparticles/Nanoparticles for Targeted Respiratory Delivery as Dry Powder …” (Pharmaceutics, 2021).
Converted amounts (≈) assume the structure as drawn. Where two headings read alike, the source gives them in different places. One block for each compound: values may come before it. Peptide text beside a SMILES is read from it. * marks the point of attachment. βGlc = OC[C@H]1O[C@@H](*)[C@H](O)[C@@H](O)[C@@H]1O

Key:
[1] = system: hCMEC/D3 blood–brain barrier endothelial cells; experiment: In vitro 2D cell viability, resazurin assay; details: for safe (non-toxic) concentration: endothelial brain cells (hCMEC/D3)
Protocol: In vitro human cell viability assays were performed to measure the biocompatibility and safety of Ang (1—7) and PNA5 on nasal epithelium RPMI 2650 cells, hCMEC/D3 blood–brain barrier endothelial cells, NHA, A549, and H441 lung cells using resazurin as a marker.
The immortalized human cerebral microvascular endothelial (hCMEC/D3) at passages 29 and 31 were seeded on collagen-coated culture flasks. Cells were grown in EndoGRO™-MV Complete Media Kit (cat. no. SCME004) supplemented with one ng/mL FGF-2 (cat. no. GF003) and kept in a humidified incubator at 37 °C and 5% CO2.
For passage, all the cell types were detached when confluence reached about 80% by treating the cells with trypsin-EDTA at 37 °C. The effects of Ang (1—7) and PNA5 on cell proliferation were analyzed by measuring all of the above cell line responses to different concentrations of Ang (1—7) and PNA5 separately. The cells were seeded in 96-well black plates at a specific density and were kept to attach for 48 h. Then, the media containing compounds were removed from each well and replaced by 100 μL of media containing 20 μM resazurin sodium salt (was dissolved in un-supplemental media) and incubated for 4 h at 37 °C and 5% CO2. The fluorescence intensity of the metabolite (resorufin) produced by the viable cells was measured at 544 nm (the excitation) and 590 nm (the emission) using the Synergy H1 Multi-Mode Reader (BioTek Instruments Inc., Winooski, VT, USA). The relative cell viability of the cell line was calculated using Equation (6):(6) Relative viability %=Sample fluorescence intensity/Control fluorescence intensity×100%

[2] = system: Normal Human Astrocytes (NHA); experiment: In vitro 2D cell viability, resazurin assay; details: for safe (non-toxic) concentration: astrocyte brain cells (NHA)
[3] = system: RPMI 2650 nasal epithelium cells; experiment: In vitro 2D cell viability, resazurin assay; details: for safe (non-toxic) concentration: nasal epithelium cells (RPMI2650)
[4] = Solubility by shake-flask method (SFM) with HPLC; assay type: physicochemical
Protocol: The solubilities of Ang (1—7) and PNA5 were determined by the SFM using conditions similar to previously reported by our group and in [39, 40, 41, 42]. Each compound’s excess powder was added to a specific volume of different solvents (purified water, phosphate buffered saline (PBS), normal saline (NS), methanol, and ethanol) in closed, light-protected glass vials. The solutions containing excess solid of Ang (1—7) and PNA5 were then capped and agitated at room temperature (25 °C) using a shaker. More powder was added to the vial if the dissolution was complete. The pH value of Ang (1—7) and PNA5 suspensions were adjusted to pH 6.5 (pseudo-isoelectric point calculated by MOE software) to determine the zwitterionic species’ solubilities and ensure the predominant presence of the unionized form of Ang (1—7) and PNA5. The separation of the saturated solution and the precipitate was performed by sedimentation. Aliquots of supernatants were withdrawn from all saturated solutions, diluted with each corresponding solvent, and injected into analytical HPLC. Each compound in each aliquot was measured against a calibration curve using the previously developed analytical HPLC method in our lab. Each compound’s solubility experiments in all solvents were repeated three times (n = 3, mean ± standard deviation).
The HPLC system is LC-2010HT next-generation HPLC (SHIMADZU Tokyo, Japan), and it is the same as previously used in [24]. This system consists of a degassing unit, low-pressure gradient unit, pump unit, mixer, ultra-fast autosampler, column oven, and a UV-VIS detector with a thermostatted flow cell system. The analysis was performed by a reverse phase HPLC assay, using Phenomenex Prodigy 5 um ODS (3) 250 × 4.6 mm HPLC Column. Ultraviolet detection was done at 280 nm. Mobile phase condition was a gradient of acetonitrile in water with 0.1% trifluoroacetic acid at two different percentages pumped from two pumps. The flow was 1 mL/min, the injection volume was 20 μL; the retention time for Ang (1—7) was ~7.7 min and for PNA5 was ~6.7 min. Quantification for both compounds was determined using peak area and calculated from freshly prepared standard curves.

[5] = system: A549 lung epithelial cells; experiment: In vitro 2D cell viability, resazurin assay; details: for safe (non-toxic) concentration: epithelium lung cells (A549)
[6] = system: H441 lung epithelial cells; experiment: In vitro 2D cell viability, resazurin assay; details: for safe (non-toxic) concentration: epithelium lung cells (H441)
[7] = Karl Fisher coulometric titration, residual water content; assay type: physicochemical; details: n = 3
Protocol: All powders’ residual water content was quantified by KFT coulometrically using conditions similar to previously reported. A TitroLine® 7500 trace titrator (SI Analytics, Mainz, Germany) was used. A mass of 1–2 mg of powder sample was dissolved in 0.5 mL AQUA STAR anhydrous methanol and injected the sample solution into a reaction cell filled with Hydranal® Coulomat AD reagent. Then obtain the water content of the sample a simple calculation. All experiments were done in triplicate (n = 3).

- Solubility Category According to USP Definition ([4]; Ethanol): Very slightly soluble (VSS)
- solubility ([4]; Ethanol, 25 °C, n = 3, read-out: Solubility): 0.16 ± 0.001 mg/mL
- solubility ([4]; Ethanol, footnote: S in mMole unit, read-out: LogS (experimental) (converted)): 0.178 mM
- solubility ([4]; H2O, footnote: S in mMole unit, read-out: LogS (experimental) (converted)): 195 mM
- solubility ([4]; H2O, read-out: Solubility Category According to USP Definition): 100 to 1000 mg/mL
- Solubility Category According to USP Definition ([4]; Methanol): Slightly soluble (SS)
- solubility ([4]; Methanol, 25 °C, n = 3, read-out: Solubility): 1 ± 0.005 mg/mL
- solubility ([4]; Methanol, footnote: S in mMole unit, read-out: LogS (experimental) (converted)): 1.12 mM
- solubility ([4]; NS, footnote: S in mMole unit, read-out: LogS (experimental) (converted)): 155 mM
- solubility ([4]; NS, read-out: Solubility Category According to USP Definition): 100 to 1000 mg/mL
- Solubility Category According to USP Definition ([4]; PBS): Freely Soluble (FS)
- solubility ([4]; PBS, footnote: S in mMole unit, read-out: LogS (experimental) (converted)): 186 mM
- solubility ([4]; pH 6.5, H2O, pH 6.5, 25 °C, n = 3, read-out: Solubility): 174 ± 0.19 mg/mL
- solubility ([4]; pH 6.5, NS (normal saline), pH 6.5, 25 °C, n = 3, read-out: Solubility): 140.4 ± 0.32 mg/mL
- solubility ([4]; pH 6.5, PBS, pH 6.5, 25 °C, n = 3, read-out: Solubility): 165.4 ± 0.34 mg/mL
SMILES: CC[C@H](C)[C@H](NC(=O)[C@H](Cc1ccc(O)cc1)NC(=O)[C@@H](NC(=O)[C@H](CCCNC(=N)N)NC(=O)[C@@H](N)CC(=O)O)C(C)C)C(=O)N[C@@H](Cc1c[nH]cn1)C(=O)N1CCC[C@H]1C(=O)O [Ang (1—7), Asp-Arg-Val-Tyr-Ile-His-Pro]
- safe (non-toxic) concentration [1]: up to 1000 μg/mL
- safe (non-toxic) concentration [2]: up to 1000 μg/mL
- safe (non-toxic) concentration [3]: up to 1000 μg/mL
- safe (non-toxic) concentration [5]: up to 1000 μg/mL
- safe (non-toxic) concentration [6]: up to 1000 μg/mL

SMILES: CC[C@H](C)[C@H](NC(=O)[C@H](Cc1ccc(O)cc1)NC(=O)[C@@H](NC(=O)[C@H](CCCNC(=N)N)NC(=O)[C@@H](N)CC(=O)O)C(C)C)C(=O)N[C@@H](Cc1c[nH]cn1)C(=O)N[C@@H](CO[C@@H]1O[C@H](CO)[C@@H](O)[C@H](O)[C@H]1O)C(N)=O [PNA5, Asp-Arg-Val-Tyr-Ile-His-Ser-(O-β-D-Glc)-amide] (H-DRVYIHS(βGlc)-NH2)
- safe (non-toxic) concentration [1]: up to 1000 μg/mL
- relative cell viability% vs control cells ([1]; hCMEC/D3, 0.1, 1, 10 and 1000 µg/mL, p > 0.05, n = 6): no statistically significant difference
- relative cell viability% vs control cells ([2]; NHA, 0.1, 1, 10 and 1000 µg/mL, p > 0.05, n = 6): no statistically significant difference
- safe (non-toxic) concentration [2]: up to 1000 μg/mL
- relative cell viability% vs control cells ([3]; RPMI2650, 0.1, 1, 10 and 1000 µg/mL, p > 0.05, n = 6): no statistically significant difference
- safe (non-toxic) concentration [3]: up to 1000 μg/mL
- Solubility Category According to USP Definition ([4]; Ethanol): Very slightly soluble (VSS)
- Solubility Category According to USP Definition ([4]; Methanol): Very slightly soluble (VSS)
- solubility thermodynamic ([4]; NS (normal saline), pH 6.5, 25 °C, n = 3): 269.3 ± 1.53 mg/mL (≈ 256 mM)
- solubility ([4]; ethanol, 25 °C, n = 3, read-out: Solubility): 0.12 ± 0.003 mg/mL
- solubility ([4]; ethanol, footnote: S in mMole unit, read-out: LogS (experimental) (converted)): 0.115 mM
- solubility ([4]; methanol, 25 °C, n = 3, read-out: Solubility): 0.34 ± 0.01 mg/mL
- solubility ([4]; methanol, footnote: S in mMole unit, read-out: LogS (experimental) (converted)): 0.331 mM
- solubility ([4]; normal saline (NS), pH 6.5, NS, footnote: S in mMole unit, read-out: LogS (experimental) (converted)): 257 mM
- solubility ([4]; normal saline (NS), pH 6.5, NS, read-out: Solubility Category According to USP Definition): 100 to 1000 mg/mL
- solubility ([4]; phosphate buffered saline (PBS), pH 6.5, PBS, footnote: S in mMole unit, read-out: LogS (experimental) (converted)): 288 mM
- solubility ([4]; phosphate buffered saline (PBS), pH 6.5, PBS, read-out: Solubility Category According to USP Definition): 100 to 1000 mg/mL
- solubility thermodynamic ([4]; phosphate buffered saline (PBS), PBS, pH 6.5, 25 °C, n = 3): 305.05 ± 0.22 mg/mL (≈ 290 mM)
- solubility ([4]; purified water, pH 6.5, H2O, footnote: S in mMole unit, read-out: LogS (experimental) (converted)): 263 mM
- solubility ([4]; purified water, pH 6.5, H2O, read-out: Solubility Category According to USP Definition): 100 to 1000 mg/mL
- solubility thermodynamic ([4]; purified water, H2O, pH 6.5, 25 °C, n = 3): 275.3 ± 2.31 mg/mL (≈ 262 mM)
- relative cell viability% vs control cells ([5]; A549, 0.1, 1, 10 and 1000 µg/mL, p > 0.05, n = 6): no statistically significant difference
- safe (non-toxic) concentration [5]: up to 1000 μg/mL
- relative cell viability% vs control cells ([6]; H441, 0.1, 1, 10 and 1000 µg/mL, p > 0.05, n = 6): no statistically significant difference
- safe (non-toxic) concentration [6]: up to 1000 μg/mL

- Water % (w/w) [7]: 8.55 ± 1.50 % (w/w)
SMILES: OC[C@H]1O[C@H](O[C@H]2O[C@H](CO)[C@@H](O)[C@H](O)[C@H]2O)[C@H](O)[C@@H](O)[C@@H]1O [Raw Trehalose, D (+)-Trehalose dihydrate]
